Laboratory results taken from PubChem BioAssay (NCI).
“And” between values parts separate entries of the source, which are not always exact repeats. Identical values can stand only once.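 The compound was tested at five concentrations on cells cultured in 96-well plates, with a 48-hour exposure period. The concentration for 50% growth inhibition is given as GI50. TGI denotes the concentration required for complete inhibition of growth.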

Legend:
Assay in all cases: growth of human tumour cells (NCI), 48 h
SF-539 CNS = system: SF-539 CNS
SW-620 colon = system: SW-620 colon
NCI-H522 lung = system: NCI-H522 lung
HOP-92 NSCLC = system: HOP-92 NSCLC
SF-268 CNS = system: SF-268 CNS
KM12 colon = system: KM12 colon
786-0 renal = system: 786-0 renal
MOLT-4 leukemia = system: MOLT-4 leukemia
PC-3 prostate = system: PC-3 prostate
MDA-MB-435 = system: MDA-MB-435

Row | Compound | TGI (SF-539 CNS) | TGI (SW-620 colon) | TGI (NCI-H522 lung) | TGI (HOP-92 NSCLC) | TGI (SF-268 CNS) | TGI (KM12 colon) | TGI (786-0 renal) | TGI (MOLT-4 leukemia) | GI50 (PC-3 prostate) | TGI (PC-3 prostate) | GI50 (MOLT-4 leukemia) | GI50 (SF-539 CNS) | GI50 (SW-620 colon) | GI50 (NCI-H522 lung) | GI50 (MDA-MB-435) | TGI (MDA-MB-435) | GI50 (SF-268 CNS) | GI50 (KM12 colon) | GI50 (786-0 renal) | GI50 (HOP-92 NSCLC)
1 | COC(=O)C1=C(C(=O)OC)C2(OC(C)=O)c3ccccc3-c3ccccc3C12 (stereo unspecified) | 31.6 µM | 3.12 µM | 2.8 µM | 3.67 µM | 22 µM | 26.8 µM | 8.26 µM |  |  |  |  |  |  |  |  |  |  |  |  | 
2 | Brc1ccc(-c2nnc(-c3nn(-c4ccccc4)c4nc5ccccc5nc34)o2)cc1 | > 100 µM | > 100 µM | > 100 µM | > 100 µM | > 100 µM | > 100 µM | > 100 µM | > 100 µM |  |  |  |  |  |  |  |  |  |  |  | 
3 | O=C(OCc1ccccc1)N1CCN(/[N+]([O-])=N/Oc2ccc([N+](=O)[O-])cc2[N+](=O)[O-])CC1 | 7.11 µM | > 100 µM | > 100 µM |  | 23.9 µM | 24.2 µM | 6.97 µM | > 100 µM | 14.2 µM | 28.5 µM | 4.47 µM | 2.81 µM | 3.79 µM | 3.66 µM | 4.93 µM | 19.5 µM | 6.28 µM | 8.66 µM | 2.45 µM | 
4 | CCn1cc(/C=C/C(C)c2cn(CC)c(=O)[nH]c2=O)c(=O)[nH]c1=O (stereo unspecified) | > 100 µM | > 100 µM | > 100 µM | > 100 µM | > 100 µM | > 100 µM | > 100 µM | > 100 µM |  |  |  |  |  |  |  |  |  |  |  | 
5 | CC[C@H]1CN2CCc3cc(OC)c(OC)cc3[C@@H]2C[C@@H]1C[C@H]1NCCc2cc(O)c(OC)cc21 | 0.0648 µM and < 0.0237 µM and 0.0511 µM | 0.0585 µM and < 0.0212 µM and 0.19 µM |  | 0.0742 µM and < 0.0176 µM |  |  | 0.0381 µM | 0.074 µM and 0.323 µM | 0.0243 µM |  |  |  |  |  | 0.0183 µM | 0.0377 µM and 0.156 µM |  |  | 0.00714 µM | 
6 | CC(=O)O/N=C/c1ncccc1OC(C)=O | > 100 µM | > 100 µM | > 100 µM | > 100 µM | > 100 µM | > 100 µM | > 100 µM | > 100 µM |  |  |  |  |  |  |  |  |  |  |  | 
7 | COC1=CC(O)(CC(N)=O)c2ccccc2C1=O (stereo unspecified) |  | > 100 µM | > 100 µM | > 100 µM | > 100 µM | > 100 µM | > 100 µM | > 100 µM |  |  |  |  |  |  |  |  |  |  |  | 
8 | Cc1cc(N(CCC#N)S(C)(=O)=O)ccc1C=O | > 100 µM | > 100 µM | > 100 µM |  | > 100 µM | > 100 µM | > 100 µM | > 100 µM |  |  |  |  |  |  |  |  |  |  |  | 
9 | CCC[CH2][Sn]([CH2]CCC)([O]C(=O)c1cc(F)cc(F)c1)[O]C(=O)c1cc(F)cc(F)c1 | 2.89 µM | 1.81 µM | 0.269 µM | 2.49 µM | 2.34 µM | 3 µM | 2.49 µM | 1.73 µM |  |  | 0.282 µM | 1.52 µM | 0.564 µM | 0.137 µM |  |  | 1.09 µM | 1.63 µM | 1.25 µM | 1.24 µM
10 | Cc1ccc(NC(=O)c2cccc([N+](=O)[O-])c2O)c([N+](=O)[O-])c1 | 34.3 µM | 39.5 µM | 29.5 µM | 45.4 µM | 54.9 µM | 23 µM | 37 µM |  |  |  |  |  |  |  |  |  |  |  |  | 
11 | CCCN(CCCC(NC(C)=O)C(=O)NCc1ccccc1)C(=O)NC (stereo unspecified) | > 100 µM | > 100 µM | > 100 µM | > 100 µM | > 100 µM | > 100 µM | > 100 µM | > 100 µM |  |  |  |  |  |  |  |  |  |  |  | 
12 | N/N=C1\C(=O)N(C2CCCCC2)C(=O)C1C(=O)NC1CCCCC1 (stereo unspecified) | > 100 µM | > 100 µM | > 100 µM | > 100 µM | > 100 µM | > 100 µM | > 100 µM | > 100 µM |  |  |  |  |  |  |  |  |  |  |  | 
13 | COc1ccc(C2=NNC(=O)OC2c2ccccc2)cc1 (stereo unspecified) | > 100 µM | > 100 µM |  | > 100 µM | > 100 µM | > 100 µM | > 100 µM | > 100 µM |  |  |  |  |  |  |  |  |  |  |  | 
14 | NC(=O)C1=NNc2ccccc2C(=O)N1c1ccccc1 | > 100 µM | > 100 µM | > 100 µM |  | > 100 µM | > 100 µM | > 100 µM | > 100 µM |  | > 100 µM |  |  |  |  |  | > 100 µM |  |  |  | 
15 | COc1ccc(/C(=N/NC(=O)NN)C(c2ccc(OC)cc2)C2(O)CNc3c(Cl)cc(Cl)cc32)cc1 (stereo unspecified) | > 100 µM | > 100 µM | > 100 µM | > 100 µM | > 100 µM | > 100 µM | > 100 µM | > 100 µM |  |  |  |  |  |  |  |  |  |  |  | 
16 | CCOC(=O)C(=O)Nc1c(F)cc(F)cc1Br | > 100 µM | > 100 µM |  | > 100 µM | > 100 µM | > 100 µM | > 100 µM | > 100 µM |  |  |  |  |  |  |  |  |  |  |  | 
17 | CCOC(=O)N1CCc2cc(OC)c(OC)c3c2C1CC3=O (stereo unspecified) | > 100 µM | > 100 µM | > 100 µM | > 100 µM | > 100 µM | > 100 µM | > 100 µM | > 100 µM |  |  |  |  |  |  |  |  |  |  |  | 
18 | COc1cc(C(=O)/C=C/c2cc(C(=O)c3cc(OC)c(OC)c(OC)c3)ccc2OC)ccc1N | 3.98 µM | > 100 µM |  | > 100 µM |  | 5.37 µM | 4.08 µM | > 100 µM | 1.8 µM | 7.4 µM | 0.616 µM | 1.53 µM | 0.374 µM |  | 1.19 µM | > 100 µM |  | 0.552 µM | 1.54 µM | 2.94 µM
19 | COc1cc(/C=C/c2cc(/C=C/c3ccc(O)c(OC)c3)n(-c3c(C)cccc3C)c(=O)n2)ccc1O |  |  | 1.04 µM | 5.51 µM | 11.5 µM | 3.63 µM | 3.41 µM |  | 1.17 µM | 6.52 µM |  |  |  | 0.264 µM |  |  | 1.19 µM | 0.47 µM | 0.958 µM | 2.07 µM
20 | CC(C)C1OC(=O)C=C1Sc1ccccc1 (stereo unspecified) | > 100 µM | > 100 µM | > 100 µM |  | > 100 µM | > 100 µM | > 100 µM | > 100 µM |  | > 100 µM |  |  |  |  |  | > 100 µM |  |  |  | 
21 | O=C(CC1(O)C(=O)Nc2ccccc21)c1ccccc1Cl (stereo unspecified) | > 100 µM | > 100 µM | > 100 µM | > 100 µM | > 100 µM |  | > 100 µM | > 100 µM |  |  |  |  |  |  |  |  |  |  |  | 
22 | COc1ccc(C(O)/C(=N\NC(N)=S)c2nc3ccc([N+](=O)[O-])cc3[nH]c2=O)cc1OC (stereo unspecified) |  | > 100 µM | > 100 µM | > 100 µM | > 100 µM | > 100 µM | > 100 µM | > 100 µM |  |  |  |  |  |  |  |  |  |  |  | 
